Data taken from patent US20060135613A1, “Carboxamides derivatives” (Bayer Healthcare AG, priority 2002, published 2006).
pIC50: −log10 of the molar value.

Legend:
[1] = biological target: T1, IP receptor (Homo sapiens, UniProt P43119); test: Iloprost-induced cAMP production assay in HEL cells (Assay 2); format: cell-based; settings: IP receptor antagonist assay, compounds of about 40 to 90% purity, read-out: Activity grade assay 2
T1 construct: HEL cells were collected with centrifugation and washed with cAMP assay buffer; endogenous in cells; host or cells: HEL 92.1.7 (human erythroleukemia, ATCC)
Experimental: [Iloprost-Induced cAMP Production Assay in HEL Cells] (Assay 2)
HEL cells were collected with centrifugation and washed with cAMP assay buffer (CAB: Hank's balanced salt solution, 17 mM Hepes, 0.1% bovine serum albumin, 1 mM IBMX, 0.4% DMSO, and 1 mM L-ascorbic acid sodium salt (pH 7.4)). Cells were suspended at the density of 2.5×10^5 cells/ml in CAB, and twenty thousand cells in 80 μl aliquot of cell suspension were put in a well of 96 well plate (Falcon). Then, 10 μl of compound solution diluted with 1% DMSO in CAB or buffer alone was added. The plate was incubated at 37° C. for 30 min. Then, another 10 μl containing 100 nM iloprost in CAB or buffer alone was added and further incubated at 37° C. for 30 min. cAMP content in the well was measured by a cAMP ELISA kit (Applied Biosystems).

T1 sequence (P43119 whole entry): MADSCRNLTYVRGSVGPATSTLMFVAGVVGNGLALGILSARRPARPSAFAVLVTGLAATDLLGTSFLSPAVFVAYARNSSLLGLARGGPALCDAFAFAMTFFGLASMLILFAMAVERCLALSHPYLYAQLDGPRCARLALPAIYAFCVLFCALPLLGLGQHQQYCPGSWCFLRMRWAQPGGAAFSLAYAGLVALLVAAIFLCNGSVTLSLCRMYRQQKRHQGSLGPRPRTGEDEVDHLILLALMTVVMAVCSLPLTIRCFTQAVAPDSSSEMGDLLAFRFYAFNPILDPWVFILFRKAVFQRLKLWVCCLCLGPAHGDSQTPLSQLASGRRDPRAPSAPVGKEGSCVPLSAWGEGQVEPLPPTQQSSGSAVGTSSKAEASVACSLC

melting point [°C] | pIC50 [1] | Compound
146 | > 7.00 | O=C(C#Cc1ccc(COc2ccccc2)cc1)N[C@@H](Cc1ccccc1)C(=O)O [Example 3, N-(4-Phenoxymethylphenylpropioloyl)phenylalanine]
205 | > 7.00 | O=C(/C=C/c1ccc(COc2ccccc2)cc1)NC(Cc1ccccc1)C(=O)O (centres unmarked) [Example 1, N-(4-phenoxymethylcinnamoyl)phenylalanine]
173 to 174 | > 7.00 | O=C(CCc1ccc(COc2ccccc2)cc1)N[C@@H](Cc1ccccc1)C(=O)O [Example 2, N-[3-(4-Phenoxymethylphenyl)propionyl]phenylalanine]
220 | > 7.00 | O=C(/C=C/c1ccc(OCc2ccccc2)cc1)NC(Cc1ccccc1)C(=O)O (centres unmarked) [Example 4, N-(4-Benzyloxycinnamoyl)phenylalanine]
